Where two headings read alike, the source gives them in different places.
Test system: phospho-serine 2056 DNA-PK in HCT116 cells
Assay: DNA-PK phosphorylation at serine 2056 (cellular), ELISA in bleomycin-treated HCT116 cells
Format: cell-based
Details: read-out: IC50 pDNA-PK
Summary of the method: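 Chemiluminescent ELISA read-out; phospho-specific signal normalised to total DNA-PKcs. Cells (HCT116) exposed 6 h to test compound plus 10 μM bleomycin to induce double-strand breaks; DMSO control served as blank.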

[1] = Homo sapiens, HCT-116, 6 h, cellular, HCT116 cells, 10 μM bleomycin, six hours
[2] = Homo sapiens, HCT-116, phospho-serine 2056 DNA-PK, bleomycin-treated HCT116 cells, class symbols A-D
[3] = Homo sapiens, HCT-116, phospho-serine 2056 DNA-PK, bleomycin-treated HCT116 cells
[4] = Homo sapiens, HCT-116, cellular DNA-PK phosphorylation at serine 2056, HCT116 cells

With `COc1nccnc1[C@@H](O)c1cc(-c2ncnc3cc(N4CCOCC4)ccc23)c(F)cc1Cl` [Example 456, (S)-[2-Chloro-4-fluoro-5-(7-morpholin-4-yl-quinazolin-4-yl)-phenyl]-(3-methoxy-pyrazin-2-yl)-methanol] the IC50 (cellular DNA-PK phosphorylation at serine 2056, HCT116 cells) was under 0.5 µM.
`CCOc1cnnc(C(O)c2ccc(F)c(-c3ncnc4cc(N5CCOCC5)ccc34)c2)c1` (centres unmarked) [Example 79, (5-Ethoxypyridazin-3-yl)-[4-fluoro-3-(7-morpholin-4-yl-quinazolin-4-yl)phenyl]-methanol] gave an IC50 [1] of 5 to 10 µM.
Work on `COc1nccnc1C(O)c1ccc(F)c(-c2ncnc3cc(N4CCOCC4)ccc23)c1` (centres unmarked) [Example 15, [4-Fluoro-3-(7-morpholin-4-yl-quinazolin-4-yl)phenyl]-(3-methoxy-pyrazin-2-yl)methanol] yielded an IC50 [1] of under 0.5 µM.
For `CC(O)(c1cncc(-c2ncnc3cc(N4CCOCC4)ccc23)c1)c1nccs1` (centres unmarked) [Example 152, 1-[5-(7-Morpholin-4-ylquinazolin-4-yl)-pyridin-3-yl]-1-thiazol-2-ylethanol], the IC50 [2] was 10 to 30 µM.
With `COc1cc(Cl)nnc1C(O)c1cc(-c2ncnc3cc(N4CCOCC4)ccc23)c(F)cc1Cl` (centres unmarked) [Example 8, [2-Chloro-4-fluoro-5-(7-morpholin-4-yl-quinazolin-4-yl)phenyl]-(6-chloro-4-methoxy-pyridazin-3-yl)methanol] the IC50 [1] was 0.5 to 5 µM.
For `OC(c1ccc(F)c(-c2ncnc3cc(N4CCOCC4)ccc23)c1)c1nccn2cnnc12` (centres unmarked) [Example 351, [4-Fluoro-3-(7-morpholin-4-yl-quinazolin-4-yl)-phenyl]-[1,2,4]-triazolo[4,3-a]-pyrazin-8-ylmethanol], the IC50 [3] was 10 to 30 µM.
Work on `OC(c1cc(F)c(F)c(-c2ncnc3cc(N4CCOCC4)ccc23)c1)c1nccs1` (centres unmarked) [Example 171, [3,4-Difluoro-5-(7-morpholin-4-yl-quinazolin-4-yl)-phenyl]thiazol-2-yl-methanol] yielded an IC50 [2] of 0.5 to 5 µM.
Compound `Cc1nccnc1C(O)c1cc(-c2ncnc3cc(N4CCOCC4)ccc23)ccc1F` (centres unmarked) [Example 393, [2-Fluoro-5-(7-morpholin-4-yl-quinazolin-4-yl)-phenyl]-(3-methyl-pyrazin-2-yl)-methanol] has an IC50 [4] of 5 to 10 µM.
`Cc1nccnc1[C@H](O)c1ccc(F)c(-c2ncnc3cc(N4CCOCC4)cc(F)c23)c1` [Example 248, (R)-[4-Fluoro-3-(5-fluoro-7-morpholin-4-ylquinazolin-4-yl)-phenyl]-(3-methyl-pyrazin-2-yl)-methanol] was tested, and the IC50 [3] was under 0.5 µM.
In the case of `OC(c1cc(-c2ncnc3cc(N4CCOCC4)ccc23)ccc1Cl)c1nccn2ccnc12` (centres unmarked) [Example 369, [2-Chloro-5-(7-morpholin-4-yl-quinazolin-4-yl)-phenyl]imidazo-[1,2-a]pyrazin-8-yl-methanol], the IC50 [4] is reported as 5 to 10 µM.
`[2H]C1([2H])OC([2H])([2H])C([2H])([2H])N(c2ccc3c(-c4cc(C(O)c5ccc(OC)nn5)c(Cl)cc4F)ncnc3c2)C1([2H])[2H]` (centres unmarked) [Example 244, [2-Chloro-4-fluoro-5-[7-(2,2,3,3,5,5,6,6-octadeuterio-morpholin-4-yl)quinazolin-4-yl]phenyl]-(6-methoxypyridazin-3-yl)methanol] was tested, and the IC50 (phospho-serine 2056 DNA-PK, bleomycin-treated HCT116 cells) was under 0.5 µM.
`CN(C)CCOc1ccc(C(O)c2ccc(F)c(-c3ncnc4cc(N5CCOCC5)ccc34)c2)nn1` (centres unmarked) [Example 133, [6-(2-Dimethyl-amino-ethoxy)-pyridazin-3-yl]-[4-fluoro-3-(7-morpholin-4-yl-quinazolin-4-yl)-phenyl]methanol] gave an IC50 [2] of 5 to 10 µM.
In the case of `NC(=O)Cn1nc(C(O)c2cc(-c3ncnc4cc(N5CCOCC5)ccc34)c(F)cc2Cl)ccc1=O` (centres unmarked) [Example 98, 2-(3-{[2-Chloro-4-fluoro-5-(7-morpholin-4-ylquinazolin-4-yl)-phenyl]hydroxymethyl}-6-oxo-6H-pyridazin-1-yl)acetamide], the IC50 [1] is reported as 10 to 30 µM.
`NC(=O)C(c1cccnc1)c1cc(-c2ncnc3cc(N4CCOCC4)ccc23)c(F)cc1F` (centres unmarked) [Example 294, 2-[2,4-Difluoro-5-(7-morpholin-4-yl-quinazolin-4-yl)-phenyl]-2-pyridin-3-ylacetamide] showed an IC50 [3] of 10 to 30 µM.
